No end group written: not given here.
Tests used:
[1] = Treatment of Alpha-1 Antitrypsin Deficiency patient (Example 4); format: in vivo, human; conditions: orally 50 mg once per day; within two weeks
From the text: In this example, a patient is diagnosed with AATD after presenting symptoms related to difficulty breathing and mild jaundice. […] The patient receives conventional therapy (e.g., bronchodilators, inhaled corticosteroids, pulmonary rehabilitation and supplemental oxygen). […] This treatment leads to some improvement, but the patient returns to the clinic seeking an alternative treatment.
The treating physician administers a compound of Formula DCT-5A to the patient: […]
The patient is administered the drug orally (i.e., 50 mg, once per day). Within two weeks, the signs/symptoms of AATD are resolved by about 80% and the patient appears in good health. The patient resumes the treatment and is periodically monitored for changes in their condition.

[2] = Treatment of severe inflammation, post-surgery patient (Example 5); format: in vivo, human; conditions: intravenously 5 mcg/minute for 1 hour, second dose after 24 hours; within two days
Description: In this example, a patient is recovering from surgery following a traumatic vehicle accident. The treating physician anticipates further complications such as acute respiratory distress syndrome (ARDS) and (multiple) organ failure. To prevent this, the treating physician administers a compound of Formula DCT-5A to the patient. The patient is administered the drug intravenously (i.e., 5 mcg/minute for 1 hour). The patient is administered a second dose after 24 hours. […] The patient resumes the treatment and is periodically monitored for changes in their condition.

[3] = Treatment of Granulomatosis with Polyangiitis patient (Example 6); format: in vivo, human; conditions: GPA patient; orally 50 mg once per day; within one week
Description: In this example, a patient complains of several symptoms including sinus pain, cough, fever, joint aches, blood in urine, and hearing loss. A physician diagnosis them with GPA after analyzing diagnostic markers.
The treating physician anticipates further complications such as acute respiratory distress syndrome (ARDS) and (multiple) organ failure. To prevent this, the treating physician administers a compound of Formula DCT-5A to the patient. The patient is administered the drug orally (i.e., 50 mg, once per day). Within one week, the signs/symptoms of AATD are resolved by about 90% and the patient appears in good health. The patient resumes the treatment and is periodically monitored for changes in their condition.

[4] = Treatment of PR3 positive ulcerative colitis patient (Example 7); format: in vivo, human; conditions: intravenously 5 mcg/minute for 1 hour, second dose after 24 hours; within two days
Description: In this example, a patient is admitted to a hospital with cough and fever (over 39.0° C.). About one month prior, they had presented with fever (over 39.0° C.), diarrhea and bloody bowel discharge. Upon admission, their hemoglobin was 8.9 g/dl and the serum C-reactive protein level was 6.8 mg/dl. […] Further, the patient tested positive for PR3-ANCA serological marker.
The treating physician administers a compound of Formula DCT-5A to the patient. The patient is administered the drug intravenously (i.e., 5 mcg/minute for 1 hour). The patient is administered a second dose after 24 hours. […] Thereafter, the patient is administered the drug orally (50 mg per day). The patient resumes the treatment and is periodically monitored for changes in their condition.

[5] = CF patients in an exacerbated state of inflammation; cited from earlier work
[6] = DSS-induced mouse model of UC; cited from earlier work

Molecule: N=C(N)NCCC(CCCc1ccc(F)cc1)C(=O)NN1CN(CCCc2ccccc2)[C@H](Cc2ccc(O)cc2)C1=O (stereo partly shown) [DCT-5A]
- signs/symptoms of AATD resolved [1]: about 80%
- clinical course of the patient [2]: shows signs of improvement
- signs/symptoms of AATD resolved [3]: about 90%
- clinical course of the patient [4]: shows signs of improvement

Molecule: A1PI: α1-proteinase inhibitor, a serpin; endogenous inhibitor of neutrophilic serine proteinases
- effect on IL6, IL1β and NE activity [5]: decrease

Molecule: elafin: polypeptide inhibitor of some peptidases and elastases; inhibits HNE, PR3 and pancreatic elastase (AQEPVKGPVSTKPGSCPIILIRCAMLNPPNRCLKDTDCPGIKKCCEGSCGMACFVPQ; ends and bridges not checked; cysteine pairing not given here; UniProt P19957 61-117, looked up)
- reducing inflammation [6]: successful in reducing inflammation in a dose-dependent manner

B1: SLPI: locally produced chelonianin; inhibits HNE but not PR3 (protein, UniProt P03973 26-132, looked up)
Antileukoproteinase: SGKSFKAGVCPPKKSAQCLRYKKPECQSDWQCPGKKRCCPDTCGIKCLDPVDTPNPTRRKPGKCPVTYGQCLMLNPPNFCEMDGQCKRDLKCCMGMCGKSCVSPVKA
- reducing inflammation [6]: also successful
